Test results as given in US20230277452A1, “COMPOSITIONS, DEVICES AND METHODS FOR TREATING NASAL, OTIC AND OTHER TISSUE INFECTION AND/OR INFLAMMATION” (priority 2020, published 2023).

Key:
[1] = Recovery of force-degraded fluticasone propionate spiked into placebo and of active cream, HPLC; type: physicochemical
in vivo = test: in vivo
Procedure: The control article was 0.9% saline.
Blood was collected (via a jugular vein cannula inserted during surgery) during the 10-day post-dose phase for pharmacokinetics, hematology, clinical chemistry, glucose, and morning cortisol analysis.
Because of the variability in the volume of the sinus in sheep, the total volume varied from 5 to 15 mL. Doses calculated by body weight and body surface area (BSA) are also shown.

Compound	Difference with Placebo (neat vs spiked recovery) ([1]; 0.1N HC1 (1 hour)) [%]	Difference with Placebo (neat vs spiked recovery) ([1]; 0.1N NaOH (1 hour)) [%]	Difference with Placebo (neat vs spiked recovery) ([1]; 3% H2O2 (1 hour)) [%]	Difference with Placebo (neat vs spiked recovery) ([1]; 60° C. (3 days)) [%]	Difference with Placebo (neat vs spiked recovery) ([1]; Control (undegraded FP, kept at 4 C.))	Difference with Placebo (neat vs spiked recovery) ([1]; White light (3 days)) [%]	plasma levels detected through (in vivo; in vivo) [days post-dose]	Tmax (in vivo; sheep plasma, intra-sinus 0.05% betamethasone dipropionate cream, median (range), n = 6)	AUCinf (in vivo; sheep, in vivo) [ng·h/mL]	AUClast (in vivo; sheep, in vivo) [ng·h/mL]	Apparent half-life (in vivo; sheep, in vivo) [h]	Cmax (in vivo; sheep, in vivo)
CCC(=O)O[C@]1(C(=O)SCF)[C@H](C)C[C@H]2[C@@H]3C[C@H](F)C4=CC(=O)C=C[C@]4(C)[C@@]3(F)[C@@H](O)C[C@@]21C [Fluticasone Propionate 0.005%]	6.03	0.19	4.03	1.09	0.2-1.1% ^	2.71						
CCC(=O)O[C@]1(C(=O)CO)[C@@H](C)C[C@H]2[C@@H]3CCC4=CC(=O)C=C[C@]4(C)[C@@]3(F)[C@@H](O)C[C@@]21C [Betamethasone 17-propionate, betamethasone 17-propionate]							3	0.5 (0.5-2) hr	59.3 ± 44.8	58.3 ± 44.7	9.5 ± 2.2	8,279 ± 3,376 pg/ml
